Values joined by “and” are separate entries in the source; they are usually repeats but may differ in a detail not shown here. Equal values may be shown once. Toxic doses and inconclusive results are not listed.
Tested on: L1210 leukemia ip in BDF1 mice, survival T/C
Experiment: NCI In Vivo Anticancer Drug Screen. Data for tumor model L1210 Leukemia (intraperitoneal) in B6D2F1 (BDF1) mice
Settings: endpoint: mean survival time, higher = longer survival
How it was run: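 Mice bearing the transplanted tumor received compound or vehicle. Survival of the treated group was divided by that of the vehicle-treated control group to give the ratio.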

[1] = dose: 100.0 mg/kg/injection, schedule: Q04DX002 (ip), vehicle: saline with Tween-80
[2] = dose: 200.0 mg/kg/injection, schedule: Q04DX002 (ip), vehicle: saline with Tween-80
[3] = dose: 400.0 mg/kg/injection, schedule: Q04DX002 (ip), vehicle: saline with Tween-80
[4] = dose: 100.0 mg/kg/injection, schedule: Q04DX003 (ip), vehicle: saline with Tween-80
[5] = dose: 200.0 mg/kg/injection, schedule: Q04DX003 (ip), vehicle: saline with Tween-80
[6] = dose: 400.0 mg/kg/injection, schedule: Q04DX003 (ip), vehicle: saline with Tween-80
[7] = dose: 100.0 mg/kg/injection, schedule: Q01DX009 (ip), vehicle: Klucel (hydroxypropylcellulose) (HPC)
[8] = dose: 200.0 mg/kg/injection, schedule: Q01DX009 (ip), vehicle: Klucel (hydroxypropylcellulose) (HPC)
[9] = dose: 400.0 mg/kg/injection, schedule: Q01DX009 (ip), vehicle: Klucel (hydroxypropylcellulose) (HPC)
[10] = dose: 100.0 mg/kg/injection, schedule: Q04DX003 (ip), vehicle: saline
[11] = dose: 200.0 mg/kg/injection, schedule: Q04DX003 (ip), vehicle: saline
[12] = dose: 400.0 mg/kg/injection, schedule: Q04DX003 (ip), vehicle: saline
[13] = dose: 100.0 mg/kg/injection, schedule: Q01DX001 (ip), vehicle: saline
[14] = dose: 100.0 mg/kg/injection, schedule: Q01DX009 (ip), vehicle: saline with Tween-80
[15] = dose: 200.0 mg/kg/injection, schedule: Q01DX009 (ip), vehicle: saline with Tween-80
[16] = dose: 400.0 mg/kg/injection, schedule: Q01DX009 (ip), vehicle: saline with Tween-80

## CCOC(=O)C1C(=O)CC(=O)C(C(=O)OCC)C1C1CC=CCC1 (stereo not given)
[1]
  T/C: 91 % of control
[2]
  T/C: 94 % of control
[3]
  T/C: 94 % of control

## COC(=O)C(Cl)C(Cl)c1ccccc1 (stereo not given)
[4]
  T/C: 97 % of control
[5]
  T/C: 97 % of control
[6]
  T/C: 94 % of control

## Cc1ccc(NC(=S)N2CCCCC2C)cc1C (stereo not given)
[7]
  T/C: 98 % of control
[8]
  T/C: 101 % of control
[9]
  T/C: 91 % of control

## CCC1(C)NC(C(=O)O)CS1 (stereo not given)
[10]
  T/C: 105 % of control
[11]
  T/C: 107 % of control
[12]
  T/C: 100 % of control

## CCCCC(CCCC)(S(=O)(=O)CC)S(=O)(=O)CC
dose: 100.0 mg/kg/injection, schedule: Q01DX001 (ip), vehicle: carboxymethylcellulose (CMC)
  T/C: 104 % of control
dose: 177.6 mg/kg/injection, schedule: Q01DX001 (ip), vehicle: carboxymethylcellulose (CMC)
  T/C: 94 % of control and 104 % of control
dose: 200.0 mg/kg/injection, schedule: Q01DX001 (ip), vehicle: carboxymethylcellulose (CMC)
  T/C: 89 % of control
dose: 266.8 mg/kg/injection, schedule: Q01DX001 (ip), vehicle: carboxymethylcellulose (CMC)
  T/C: 98 % of control and 88 % of control
dose: 600.0 mg/kg/injection, schedule: Q01DX001 (ip), vehicle: carboxymethylcellulose (CMC)
  T/C: 98 % of control and 92 % of control

## O=C(Nc1cccc2ccccc12)C(F)(F)F
[13]
  T/C: 93 % of control
[14]
  T/C: 98 % of control
[4]
  T/C: 90 % of control
[15]
  T/C: 104 % of control
[5]
  T/C: 95 % of control
[16]
  T/C: 98 % of control
[6]
  T/C: 93 % of control

## S=C1Nc2ccccc2CS1
[7]
  T/C: 100 % of control
[8]
  T/C: 98 % of control
[9]
  T/C: 102 % of control

## Clc1ccccc1C1Nc2ccccc2S1 (stereo not given)
[13]
  T/C: 109 % of control
dose: 200.0 mg/kg/injection, schedule: Q01DX001 (ip), vehicle: saline
  T/C: 104 % of control
dose: 400.0 mg/kg/injection, schedule: Q01DX001 (ip), vehicle: saline
  T/C: 99 % of control

## CS(=O)(=O)C1(S(C)(=O)=O)Cc2ccccc2C1
[4]
  T/C: 91 % of control
[5]
  T/C: 92 % of control
[6]
  T/C: 100 % of control

## O=C(O)c1cc2ccccc2oc1=O
dose: 10.0 mg/kg/injection, schedule: Q01DX009 (ip), vehicle: Klucel (hydroxypropylcellulose) (HPC)
  T/C: 101 % of control
dose: 100.0 mg/kg/injection, schedule: Q01DX001 (ip), vehicle: Klucel (hydroxypropylcellulose) (HPC)
  T/C: 95 % of control
dose: 200.0 mg/kg/injection, schedule: Q01DX001 (ip), vehicle: Klucel (hydroxypropylcellulose) (HPC)
  T/C: 97 % of control
dose: 400.0 mg/kg/injection, schedule: Q01DX001 (ip), vehicle: Klucel (hydroxypropylcellulose) (HPC)
  T/C: 98 % of control

## CCCC(C)OS(=O)(=O)c1ccc([N+](=O)[O-])cc1 (stereo not given)
dose: 100.0 mg/kg/injection, schedule: Q04DX002 (ip), vehicle: saline
  T/C: 101 % of control
dose: 200.0 mg/kg/injection, schedule: Q04DX002 (ip), vehicle: saline
  T/C: 90 % of control
dose: 400.0 mg/kg/injection, schedule: Q04DX002 (ip), vehicle: saline
  T/C: 92 % of control

## O=C1OC(=O)N2N=CC=CC12 (stereo not given)
[14]
  T/C: 102 % of control
[15]
  T/C: 100 % of control
[16]
  T/C: 96 % of control

## O=C(C(=O)N1CC2OC2C1)N1CC2OC2C1 (stereo not given)
dose: 29.0 mg/kg/injection, schedule: Q04DX002 (ip), vehicle: saline with Tween-80
  T/C: 95 % of control
dose: 39.0 mg/kg/injection, schedule: Q01DX001 (ip), vehicle: saline with Tween-80
  T/C: 98 % of control
dose: 44.0 mg/kg/injection, schedule: Q04DX002 (ip), vehicle: saline with Tween-80
  T/C: 100 % of control
dose: 59.0 mg/kg/injection, schedule: Q01DX001 (ip), vehicle: saline with Tween-80
  T/C: 102 % of control
dose: 67.0 mg/kg/injection, schedule: Q04DX002 (ip), vehicle: saline with Tween-80
  T/C: 100 % of control
dose: 88.0 mg/kg/injection, schedule: Q01DX001 (ip), vehicle: saline with Tween-80
  T/C: 97 % of control
dose: 133.0 mg/kg/injection, schedule: Q01DX001 (ip), vehicle: saline with Tween-80
  T/C: 97 % of control
dose: 150.0 mg/kg/injection, schedule: Q04DX002 (ip), vehicle: saline with Tween-80
  T/C: 102 % of control
dose: 200.0 mg/kg/injection, schedule: Q01DX001 (ip), vehicle: saline with Tween-80
  T/C: 97 % of control
[2]
  T/C: 239 % of control
dose: 225.0 mg/kg/injection, schedule: Q04DX002 (ip), vehicle: saline with Tween-80
  T/C: 105 % of control
dose: 300.0 mg/kg/injection, schedule: Q01DX001 (ip), vehicle: saline with Tween-80
  T/C: 100 % of control

## O=C(Nc1cc(C2=NCCN2)cc(C2=NCCN2)c1)Nc1cc(C2=NCCN2)cc(C2=NCCN2)c1
dose: 0.75 mg/kg/injection, schedule: Q01DX Z (ip), vehicle: carboxymethylcellulose (CMC)
  T/C: 101 % of control
dose: 1.5 mg/kg/injection, schedule: Q01DX Z (ip), vehicle: carboxymethylcellulose (CMC)
  T/C: 98 % of control
dose: 3.0 mg/kg/injection, schedule: Q01DX Z (ip), vehicle: carboxymethylcellulose (CMC)
  T/C: 95 % of control
dose: 6.0 mg/kg/injection, schedule: Q01DX Z (ip), vehicle: carboxymethylcellulose (CMC)
  T/C: 101 % of control

## CC1CC(C)NC(=O)N1 (stereo not given)
dose: 50.0 mg/kg/injection, schedule: Q04DX002 (ip), vehicle: saline with Tween-80
  T/C: 98 % of control
[1]
  T/C: 94 % of control
[2]
  T/C: 91 % of control
[3]
  T/C: 98 % of control

## CC(C)(O)S(=O)(=O)O
[1]
  T/C: 95 % of control
[2]
  T/C: 101 % of control
[3]
  T/C: 98 % of control

## CC/C=C(CC)/C(CC)=C(\Br)CC
[10]
  T/C: 94 % of control
[11]
  T/C: 92 % of control

## COc1ccc(O)c(Br)c1
dose: 100.0 mg/kg/injection, schedule: Q01DX009 (ip), vehicle: other
  T/C: 97 % of control
dose: 100.0 mg/kg/injection, schedule: Q04DX003 (ip), vehicle: other
  T/C: 94 % of control
dose: 200.0 mg/kg/injection, schedule: Q01DX009 (ip), vehicle: other
  T/C: 103 % of control
dose: 200.0 mg/kg/injection, schedule: Q04DX003 (ip), vehicle: other
  T/C: 96 % of control
dose: 400.0 mg/kg/injection, schedule: Q04DX003 (ip), vehicle: other
  T/C: 92 % of control

## CCC(C)C(C=NCC(CCN(C)C)(c1ccc2ccccc2c1)C(C)CC)(CCN(C)C)c1ccc2ccccc2c1 (stereo not given)
dose: 12.5 mg/kg/injection, schedule: Q04DX002 (ip), vehicle: saline + alcohol
  T/C: 92 % of control
dose: 12.5 mg/kg/injection, schedule: Q04DX002 (ip), vehicle: saline with Tween-80
  T/C: 92 % of control
dose: 25.0 mg/kg/injection, schedule: Q04DX002 (ip), vehicle: saline + alcohol
  T/C: 92 % of control

## Nc1nc(=S)c2[nH]c(N=Nc3ccc(S(=O)(=O)Nc4cnc5ccccc5n4)cc3)nc2[nH]1
dose: 25.0 mg/kg/injection, schedule: Q01DX009 (ip), vehicle: Klucel (hydroxypropylcellulose) (HPC)
  T/C: 112 % of control
dose: 50.0 mg/kg/injection, schedule: Q01DX009 (ip), vehicle: Klucel (hydroxypropylcellulose) (HPC)
  T/C: 109 % of control
[7]
  T/C: 91 % of control

## CCOC(CCC#N)c1ccc(C)cc1 (stereo not given)
[4]
  T/C: 113 % of control
dose: 118.0 mg/kg/injection, schedule: Q01DX009 (ip), vehicle: saline with Tween-80
  T/C: 108 % of control
[5]
  T/C: 98 % of control
dose: 235.0 mg/kg/injection, schedule: Q01DX009 (ip), vehicle: saline with Tween-80
  T/C: 97 % of control
[6]
  T/C: 95 % of control

## Cc1c(Cl)c(C)c(Cl)c(CCl)c1Cl
dose: 100.0 mg/kg/injection, schedule: Q01DX009 (ip), vehicle: saline sonified
  T/C: 100 % of control
dose: 100.0 mg/kg/injection, schedule: Q04DX003 (ip), vehicle: Klucel (hydroxypropylcellulose) (HPC)
  T/C: 97 % of control
dose: 200.0 mg/kg/injection, schedule: Q01DX009 (ip), vehicle: saline sonified
  T/C: 95 % of control
dose: 200.0 mg/kg/injection, schedule: Q04DX003 (ip), vehicle: Klucel (hydroxypropylcellulose) (HPC)
  T/C: 89 % of control
dose: 400.0 mg/kg/injection, schedule: Q01DX009 (ip), vehicle: saline sonified
  T/C: 91 % of control
dose: 400.0 mg/kg/injection, schedule: Q04DX003 (ip), vehicle: Klucel (hydroxypropylcellulose) (HPC)
  T/C: 92 % of control

## COc1cccc(CC(N)=O)c1OC
dose: 100.0 mg/kg/injection, schedule: Q01DX009 (ip), vehicle: saline
  T/C: 97 % of control
[10]
  T/C: 95 % of control
dose: 200.0 mg/kg/injection, schedule: Q01DX009 (ip), vehicle: saline
  T/C: 90 % of control
[11]
  T/C: 92 % of control
[12]
  T/C: 97 % of control
